Reference: patent US8710062B2, “Piperazinedione compounds” (Taipei Medical University, priority 2011, dated 2014)
pIC50: −log10 of the molar value. Where a name gives a salt, the structure may show the parent alone.

Assays:
[1] = test system: human HL-60 promyelocytic leukemia xenograft; test: HL-60 xenograft in SCID mice; conditions: for median TTE (time to endpoint): control median TTE 11.0 days
Procedure: Nude-athymic mice were maintained in accordance with the Institutional Animal Care and Use Committee procedures and guidelines.
The medium was supplemented with 10% heat-inactivated fetal bovine serum and 2 mM glutamine.
The human HL-60 promyelocytic leukemia cells used for implantation were harvested during log phase growth and resuspended in phosphate-buffered saline at 8.0×10^7 cells/mL. Each mouse was injected s.c. in the right flank with 1.6×10^7 cells (0.2 mL cell suspension). Tumors were monitored twice weekly and then daily as their volumes approached 100 mm^3. […] Tumor size, in mm3, was calculated as: Tumor Volume=w2×l, where w=width and l=length in mm of the tumor. Tumor weight can be estimated with the assumption that 1 mg is equivalent to 1 mm3 of tumor volume.
The agent was given dose at 5 mg/kg once every day (qd) and every other day (q2d) to endpoint. Treatments began on Day 1 (D1) in groups of male SCID mice (n=6) bearing established (˜444.4 mm3) subcutaneous tumors. […] Logrank tests determine significance of the differences between TTE values for drug-treated and control mice, at P≦0.05.

Insulin Receptor = Insulin Receptor (Homo sapiens, UniProt P06213); test: Kinome inhibition assay; format: biochemical
Insulin Receptor, sequence (P06213 28-1382): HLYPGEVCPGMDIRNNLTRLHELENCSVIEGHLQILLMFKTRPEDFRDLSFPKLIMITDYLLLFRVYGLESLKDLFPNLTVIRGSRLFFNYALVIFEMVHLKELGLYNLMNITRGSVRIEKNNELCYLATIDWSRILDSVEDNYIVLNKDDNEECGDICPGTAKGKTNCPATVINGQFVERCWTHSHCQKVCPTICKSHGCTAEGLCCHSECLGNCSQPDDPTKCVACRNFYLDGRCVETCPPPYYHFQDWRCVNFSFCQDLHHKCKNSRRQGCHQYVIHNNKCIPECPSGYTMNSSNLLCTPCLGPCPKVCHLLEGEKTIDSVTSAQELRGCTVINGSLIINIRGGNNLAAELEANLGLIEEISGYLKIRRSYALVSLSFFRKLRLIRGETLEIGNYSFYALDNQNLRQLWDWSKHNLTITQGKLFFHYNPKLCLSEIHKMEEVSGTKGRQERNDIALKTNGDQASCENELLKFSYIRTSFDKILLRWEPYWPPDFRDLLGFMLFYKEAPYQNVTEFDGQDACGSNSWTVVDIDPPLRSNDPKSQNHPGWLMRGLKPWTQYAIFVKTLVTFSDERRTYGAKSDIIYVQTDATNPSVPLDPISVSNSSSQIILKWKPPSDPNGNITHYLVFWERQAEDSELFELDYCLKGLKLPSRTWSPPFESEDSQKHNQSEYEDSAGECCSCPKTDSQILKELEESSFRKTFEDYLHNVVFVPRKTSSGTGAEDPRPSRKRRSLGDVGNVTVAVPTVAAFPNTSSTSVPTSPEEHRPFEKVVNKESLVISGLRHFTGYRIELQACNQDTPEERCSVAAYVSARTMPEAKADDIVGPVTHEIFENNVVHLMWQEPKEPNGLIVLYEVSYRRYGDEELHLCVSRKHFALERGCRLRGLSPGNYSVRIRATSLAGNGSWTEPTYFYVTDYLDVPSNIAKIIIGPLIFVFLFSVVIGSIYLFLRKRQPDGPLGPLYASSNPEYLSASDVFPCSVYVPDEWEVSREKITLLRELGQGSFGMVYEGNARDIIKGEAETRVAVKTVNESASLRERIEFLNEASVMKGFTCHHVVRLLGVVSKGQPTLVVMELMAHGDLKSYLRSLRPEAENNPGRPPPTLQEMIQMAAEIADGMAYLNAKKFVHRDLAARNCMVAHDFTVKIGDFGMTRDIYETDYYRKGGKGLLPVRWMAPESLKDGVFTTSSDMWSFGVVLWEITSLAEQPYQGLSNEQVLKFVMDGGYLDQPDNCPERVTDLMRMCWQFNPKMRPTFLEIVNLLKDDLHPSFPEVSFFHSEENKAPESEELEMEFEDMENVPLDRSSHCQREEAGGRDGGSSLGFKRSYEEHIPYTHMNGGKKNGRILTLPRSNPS
Procedure: (§1) Kinome inhibition studies were conducted following the procedures described in literature. […] In general, each purified kinase was incubated with its substrate in buffer (MOPS buffer or HEPES buffer) containing an essential metal co-enzyme or cofactor, antioxidant, and ATP (gamma-P^32 radio-labeled ATP or cold ATP). Compound 2 was co-incubated with the kinase solution thus obtained for 0.5-1 hr at 37° C. The reaction was stopped by boiling the reaction solution with an extra SDS solution. The phosphorylation level of the substrate was monitored ether by quantification of the radio-labeled substrate or by quantification of phosphor-substrate specific antibodies. In each study, a reference standard was run as an integral part to ensure the validity of the experimental results obtained. The table below includes the IC50 values obtained from this experiment.

AKT1 (PRKBA) = AKT1 (PRKBA) (Homo sapiens, UniProt P31749); test: Kinome inhibition assay; format: biochemical
AKT1 (PRKBA), sequence (P31749 whole entry): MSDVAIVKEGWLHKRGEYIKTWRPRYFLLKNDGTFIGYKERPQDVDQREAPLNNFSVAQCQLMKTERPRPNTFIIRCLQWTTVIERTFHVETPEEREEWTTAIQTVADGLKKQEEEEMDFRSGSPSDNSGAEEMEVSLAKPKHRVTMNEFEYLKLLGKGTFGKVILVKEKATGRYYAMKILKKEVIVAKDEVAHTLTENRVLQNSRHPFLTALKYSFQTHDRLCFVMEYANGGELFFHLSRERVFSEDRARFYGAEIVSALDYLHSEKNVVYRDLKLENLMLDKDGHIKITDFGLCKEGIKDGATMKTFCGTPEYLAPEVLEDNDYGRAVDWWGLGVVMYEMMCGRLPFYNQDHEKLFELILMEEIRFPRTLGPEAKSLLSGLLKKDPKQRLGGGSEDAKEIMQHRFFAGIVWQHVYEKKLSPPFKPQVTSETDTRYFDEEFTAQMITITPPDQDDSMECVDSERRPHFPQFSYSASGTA
Procedure: as §1

GSK3B = GSK3B (Homo sapiens, UniProt P49841); test: Kinome inhibition assay; format: biochemical
GSK3B, sequence (P49841 whole entry): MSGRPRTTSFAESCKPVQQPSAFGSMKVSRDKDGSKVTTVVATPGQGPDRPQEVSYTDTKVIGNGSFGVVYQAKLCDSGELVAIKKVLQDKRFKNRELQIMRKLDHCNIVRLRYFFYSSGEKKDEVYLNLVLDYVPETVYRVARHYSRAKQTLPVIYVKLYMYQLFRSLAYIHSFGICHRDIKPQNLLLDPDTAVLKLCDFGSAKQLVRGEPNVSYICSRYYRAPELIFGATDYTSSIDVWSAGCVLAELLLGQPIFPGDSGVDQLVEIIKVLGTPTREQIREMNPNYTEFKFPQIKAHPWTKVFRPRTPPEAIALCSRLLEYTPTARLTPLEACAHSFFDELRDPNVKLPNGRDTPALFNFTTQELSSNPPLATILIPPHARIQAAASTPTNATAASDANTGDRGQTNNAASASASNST
Procedure: as §1

MAPK8 (JNK1) = MAPK8 (JNK1) (Homo sapiens, UniProt P45983); test: Kinome inhibition assay; format: biochemical
MAPK8 (JNK1), sequence (P45983 whole entry): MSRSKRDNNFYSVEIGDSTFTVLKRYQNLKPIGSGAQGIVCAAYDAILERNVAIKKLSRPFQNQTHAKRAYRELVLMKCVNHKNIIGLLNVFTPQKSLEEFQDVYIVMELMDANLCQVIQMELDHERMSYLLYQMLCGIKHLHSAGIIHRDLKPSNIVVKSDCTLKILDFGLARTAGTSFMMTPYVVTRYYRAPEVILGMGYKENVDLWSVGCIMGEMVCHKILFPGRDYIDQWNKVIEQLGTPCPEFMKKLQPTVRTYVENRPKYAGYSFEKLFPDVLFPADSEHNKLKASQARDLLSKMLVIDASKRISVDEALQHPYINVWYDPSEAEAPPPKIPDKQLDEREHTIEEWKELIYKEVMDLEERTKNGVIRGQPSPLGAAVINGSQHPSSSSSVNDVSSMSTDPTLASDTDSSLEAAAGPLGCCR
Procedure: as §1

PIM1 = PIM1 (Homo sapiens, UniProt P11309); test: Kinome inhibition assay; format: biochemical
PIM1, sequence (P11309 whole entry): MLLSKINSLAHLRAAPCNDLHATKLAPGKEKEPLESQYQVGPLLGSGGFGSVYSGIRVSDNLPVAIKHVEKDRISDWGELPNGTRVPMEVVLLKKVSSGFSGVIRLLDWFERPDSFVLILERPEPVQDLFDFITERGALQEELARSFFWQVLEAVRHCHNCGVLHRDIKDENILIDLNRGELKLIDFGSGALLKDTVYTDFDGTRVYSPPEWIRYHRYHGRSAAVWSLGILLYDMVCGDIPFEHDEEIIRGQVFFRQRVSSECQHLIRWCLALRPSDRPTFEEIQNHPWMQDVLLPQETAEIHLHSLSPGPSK
Procedure: as §1

SGK1 = SGK1 (Homo sapiens, UniProt O00141); test: Kinome inhibition assay; format: biochemical
Procedure: as §1

NTRK1 (TRKA) = NTRK1 (TRKA) (Homo sapiens, UniProt P04629); test: Kinome inhibition assay; format: biochemical
Procedure: as §1

RP56KA5 (MSK1) = RP56KA5 (MSK1) (Homo sapiens, UniProt O75582); test: Kinome inhibition assay; format: biochemical
Procedure: as §1

PDK1 = PDK1 (Homo sapiens, UniProt O15530); test: Kinome inhibition assay; format: biochemical
Procedure: as §1

SRPK1 = SRPK1 (Homo sapiens, UniProt Q96SB4); test: Kinome inhibition assay; format: biochemical
SRPK1, sequence (Q96SB4 whole entry): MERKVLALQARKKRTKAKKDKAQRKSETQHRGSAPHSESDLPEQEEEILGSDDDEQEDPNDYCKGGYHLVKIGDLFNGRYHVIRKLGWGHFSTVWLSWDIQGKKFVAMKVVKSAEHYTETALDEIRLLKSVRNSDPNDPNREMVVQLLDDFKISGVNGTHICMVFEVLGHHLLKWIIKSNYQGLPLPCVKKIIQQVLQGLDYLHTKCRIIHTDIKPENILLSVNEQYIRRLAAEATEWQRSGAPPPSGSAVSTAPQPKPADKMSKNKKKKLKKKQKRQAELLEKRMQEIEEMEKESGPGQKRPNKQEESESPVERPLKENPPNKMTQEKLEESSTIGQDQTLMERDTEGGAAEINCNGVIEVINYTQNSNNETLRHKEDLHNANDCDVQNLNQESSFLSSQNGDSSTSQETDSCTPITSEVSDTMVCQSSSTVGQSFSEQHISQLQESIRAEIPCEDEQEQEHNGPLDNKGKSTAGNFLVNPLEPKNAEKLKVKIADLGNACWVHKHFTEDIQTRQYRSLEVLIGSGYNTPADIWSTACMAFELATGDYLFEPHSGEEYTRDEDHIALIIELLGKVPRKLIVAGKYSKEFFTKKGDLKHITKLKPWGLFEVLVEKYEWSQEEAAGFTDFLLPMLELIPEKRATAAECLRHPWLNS
Procedure: as §1

ABL1 = ABL1 (Mus musculus, UniProt P00520); test: Kinome inhibition assay; format: biochemical
Procedure: as §1

AURKA (Aurora-A) = AURKA (Aurora-A) (Homo sapiens, UniProt O14965); test: Kinome inhibition assay; format: biochemical
AURKA (Aurora-A), sequence (O14965 whole entry): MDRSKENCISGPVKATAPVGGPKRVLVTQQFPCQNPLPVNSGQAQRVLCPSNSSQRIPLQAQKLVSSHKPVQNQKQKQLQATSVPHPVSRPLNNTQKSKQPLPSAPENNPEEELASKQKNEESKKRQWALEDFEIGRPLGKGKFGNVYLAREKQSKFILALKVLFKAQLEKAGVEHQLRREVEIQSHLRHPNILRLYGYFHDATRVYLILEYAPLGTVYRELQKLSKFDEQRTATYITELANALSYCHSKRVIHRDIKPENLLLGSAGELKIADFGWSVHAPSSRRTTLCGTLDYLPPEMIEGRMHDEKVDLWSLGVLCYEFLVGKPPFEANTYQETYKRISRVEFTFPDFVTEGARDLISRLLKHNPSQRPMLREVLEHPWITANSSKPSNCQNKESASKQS
Procedure: as §1

FER (TYK3) = FER (TYK3) (Homo sapiens, UniProt P16591); test: Kinome inhibition assay; format: biochemical
FER (TYK3), sequence (P16591 whole entry): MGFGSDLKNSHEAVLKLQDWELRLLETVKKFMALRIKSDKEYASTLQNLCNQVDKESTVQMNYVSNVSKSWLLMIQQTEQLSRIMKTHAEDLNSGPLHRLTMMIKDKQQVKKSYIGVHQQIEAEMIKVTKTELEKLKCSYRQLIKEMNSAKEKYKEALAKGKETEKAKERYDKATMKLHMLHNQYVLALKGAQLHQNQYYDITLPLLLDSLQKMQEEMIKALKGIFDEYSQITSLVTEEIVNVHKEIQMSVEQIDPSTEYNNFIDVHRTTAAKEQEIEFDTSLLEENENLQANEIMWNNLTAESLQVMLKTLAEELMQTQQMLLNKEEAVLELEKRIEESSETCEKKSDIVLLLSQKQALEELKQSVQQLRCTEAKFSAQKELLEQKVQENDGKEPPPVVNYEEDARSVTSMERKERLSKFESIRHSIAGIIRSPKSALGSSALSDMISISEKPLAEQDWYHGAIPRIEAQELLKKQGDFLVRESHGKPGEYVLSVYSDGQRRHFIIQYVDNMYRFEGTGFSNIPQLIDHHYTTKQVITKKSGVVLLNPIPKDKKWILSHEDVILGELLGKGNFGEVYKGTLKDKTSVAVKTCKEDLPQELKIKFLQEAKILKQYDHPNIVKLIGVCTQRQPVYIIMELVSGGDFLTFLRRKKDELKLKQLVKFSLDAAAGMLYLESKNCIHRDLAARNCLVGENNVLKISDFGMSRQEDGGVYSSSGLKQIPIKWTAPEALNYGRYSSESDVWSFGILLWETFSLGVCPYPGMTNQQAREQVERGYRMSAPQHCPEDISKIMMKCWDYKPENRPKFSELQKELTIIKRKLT
Procedure: as §1

[2] = test system: 60 Human Cancer Cell Lines (NCI-60); test: Broad-spectrum anticancer activity (NCI-60, SRB); format: cell-based; conditions: mean against leukemia, NSCLC, colon, CNS, melanoma, ovarian, renal, prostate and breast cancer, 48 h, read-out: mean pIC50 (converted)
Procedure: Broad-spectrum anticancer activities were conducted by NCI/NIH following standard protocols.
Human tumor cell lines were grown in RPMI 1640 medium containing 5% fetal bovine serum and 2 mM L-glutamine. For a typical screening experiment, cells were inoculated into 96-well microtiter plates in 100 μL at the plating densities ranging from 5,000 to 40,000 cells/well depending on the doubling time of individual cell lines. After cell inoculation, the microtiter plates were incubated at 37° C., 5% CO2, 95% air and 100% relative humidity for 24 h prior to addition of experimental drugs. […]
Following drug addition, the plates were incubated for an additional 48 h at 37° C., 5% CO2, 95% air, and […]. […] Bound stain was subsequently solubilized with 10 mM trizma base, and the absorbance was read on an automated plate reader at a wavelength of 515 nm. […] Using the seven absorbance measurements [time zero, (Tz), control growth, (C), and test growth in the presence of drug at the five concentration levels (Ti)], the percentage growth was calculated at each of the drug concentrations levels. Percentage growth inhibition was calculated as: [(Ti−Tz)/(C−Tz)]×100 for concentrations for which Ti>/=Tz [(Ti−Tz)/Tz]×100 for concentrations for which Ti<Tz.
Three dose response parameters were calculated for each experimental agent. […]

[3] = 5 mg/kg p.o. every other day (q2d)
[4] = @ 10 μM, read-out: Single dose inhibition
[5] = @ 30 μM, read-out: Single dose inhibition

Q: Which results are given for O=c1[nH]/c(=C\c2ccc(OCc3ccncc3)cn2)c(=O)[nH]/c1=C\c1ccccc1 [Compound 2, 3-benzylidene-6-((5-(pyridin-4-ylmethoxy)pyridin-2-yl)methylene)piperazine-2,5-dione methanesulfonic acid salt]?
A: % TGD (percent tumor growth delay) [1, 3]: 120%; T−C [1, 3]: 13.2 days; median TTE (time to endpoint) [1, 3]: 24.2 days; maximum BW loss ([1]; 5 mg/kg p.o. every other day (q2d), on day 8): 4.2%; % TGD (percent tumor growth delay) ([1]; 5 mg/kg p.o. once a day (qd)): 29%; T−C ([1]; 5 mg/kg p.o. once a day (qd)): 3.2 days; median TTE (time to endpoint) ([1]; 5 mg/kg p.o. once a day (qd)): 14.2 days; treatment related deaths ([1]; 5 mg/kg p.o. once a day (qd), n=6): Two; maximum BW loss ([1]; 5 mg/kg p.o. once a day (qd), on day 11): 1.9%; inhibition at 3 µM (Insulin Receptor; @ 3 μM, read-out: Single dose inhibition): 70%; pIC50 (Insulin Receptor; Insulin Receptor, Human): 5.74; inhibition at 10 µM (AKT1 (PRKBA); [4]): 93%; pIC50 (AKT1 (PRKBA); AKT1 (PRKBA), Human): 5.41; inhibition at 30 µM (GSK3B; [5]): 69%; pIC50 (GSK3B; GSK3B, Human): 4.96; inhibition at 10 µM (MAPK8 (JNK1); [4]): 74%; pIC50 (MAPK8 (JNK1); MAPK8 (JNK1), Human): 5.32; inhibition at 30 µM (PIM1; [5]): 98%; pIC50 (PIM1; PIM1, Human): 5.02; inhibition at 10 µM (SGK1; [4]): 83%; pIC50 (SGK1; SGK1, Human): 5.53; inhibition at 30 µM (NTRK1 (TRKA); [5]): 66%; pIC50 (NTRK1 (TRKA); NTRK1 (TRKA), Human): 4.76; inhibition at 10 µM (RP56KA5 (MSK1); [4]): 53%; pIC50 (RP56KA5 (MSK1); RP56KA5 (MSK1), Human): 5.10; inhibition at 10 µM (PDK1; [4]): 59%; pIC50 (PDK1; PDK1, Human): 5.09; inhibition at 10 µM (SRPK1; [4]): 61%; pIC50 (SRPK1; SRPK1, Human): 4.97; inhibition at 10 µM (ABL1; [4]): 90%; pIC50 (ABL1; ABL1, Mouse): 5.50; inhibition at 30 µM (AURKA (Aurora-A); [5]): 73%; pIC50 (AURKA (Aurora-A); AURKA (Aurora-A), Human): 4.86; inhibition at 10 µM (FER (TYK3); [4]): 55%; pIC50 (FER (TYK3); FER (TYK3), Human): 5.14; IC50 [2]: 0.0525 µM
